The source of these data is US12304890B2, “R-type pyridyloxycarboxylic acid, salt and ester derivative thereof, and preparation method therefor, and herbicidal composition and application thereof” (Qingdao Kingagroot Chemical Compound Co., Ltd., priority 2018, dated 2025).

What all share (type): in vivo
The subject of test [1] is Monocotyledonous and dicotyledonous weed seeds and main crop seeds. As to the kind of experiment: Post-emergence test experiment, other weeds and crops (Table 4, 1000 g a.i./ha). To be noted: 3 weeks in greenhouse, fresh weight inhibition. The essentials:
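Weed and crop seeds (wheat, corn, rice, soybean, cotton, oilseed, millet, sorghum) sown in soil pots in a greenhouse and sprayed at 2-3 leaf stage, 2 weeks after sowing. Compound in acetone/tween-80 with methyl oleate concentrate (1.5 L/ha) as synergist. Effect recorded as fresh-weight growth inhibition rate.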

The next test has as its system Echinochloa crusgalli. As to the kind of experiment: Post-emergence test experiment, Echinochloa crusgalli. Particulars: 1000 g a.i./ha, 3 weeks in greenhouse, fresh weight inhibition. The essentials:
(§1)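 Read-out is fresh weight inhibition rate, taken 3 weeks after spraying. Treatment was applied to plants at the 2-3 leaf stage, grown from seed under 0.5-2 cm soil in greenhouse pots. Spray solution contained acetone, tween-80 and methyl oleate emulsible concentrate at 1.5 liters per hectare.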

In another test the test system is Digitaria sanguinalis. As to the kind of experiment: Post-emergence test experiment, Digitaria sanguinalis. To be noted: 1000 g a.i./ha, 3 weeks in greenhouse, fresh weight inhibition. The method in brief:
as §1

Molecules are shown by their SMILES.

Take `C[C@@H](Oc1nc(F)c(Cl)c(N)c1Cl)C(=O)OCc1ccccn1` [Compound 2-342]: in test [1], the “Activity level (growth inhibition rate), Abutilon theophrasti Medic.” value is reported as 5 (Level 5: the growth inhibition rate is greater than 85%); the “Activity level (growth inhibition rate), Galium aparine” value is given as 5 (Level 5: the growth inhibition rate is greater than 85%); the “Activity level (growth inhibition rate), Monochoria Vaginalis” value is 5 (Level 5: the growth inhibition rate is greater than 85%). Further, in the test with Echinochloa crusgalli, the “Activity level (growth inhibition rate), Echinochloa crusgalli” value was 5 (Level 5: the growth inhibition rate is greater than 85%). Moreover, the “Activity level (growth inhibition rate), Digitaria sanguinalis” value in the test with Digitaria sanguinalis is recorded as 5 (Level 5: the growth inhibition rate is greater than 85%).

With `C[C@@H](Oc1nc(F)c(Cl)c(N)c1Cl)C(=O)OCc1ccncc1` [Compound 2-344], in test [1], the “Activity level (growth inhibition rate), Abutilon theophrasti Medic.” value is 5 (Level 5: the growth inhibition rate is greater than 85%); the “Activity level (growth inhibition rate), Galium aparine” value was 5 (Level 5: the growth inhibition rate is greater than 85%); the “Activity level (growth inhibition rate), Monochoria Vaginalis” value was 5 (Level 5: the growth inhibition rate is greater than 85%). Moreover, the “Activity level (growth inhibition rate), Echinochloa crusgalli” value with Echinochloa crusgalli was 5 (Level 5: the growth inhibition rate is greater than 85%). Also, the “Activity level (growth inhibition rate), Digitaria sanguinalis” value in the test on Digitaria sanguinalis is given as 5 (Level 5: the growth inhibition rate is greater than 85%).

As for `C[C@@H](Oc1nc(F)c(Cl)c(N)c1Cl)C(=O)SCc1ccncc1` [Compound 2-345], in test [1], the “Activity level (growth inhibition rate), Abutilon theophrasti Medic.” value is on record as 5 (Level 5: the growth inhibition rate is greater than 85%); the “Activity level (growth inhibition rate), Galium aparine” value is given as 5 (Level 5: the growth inhibition rate is greater than 85%); the “Activity level (growth inhibition rate), Monochoria Vaginalis” value is 5 (Level 5: the growth inhibition rate is greater than 85%). The “Activity level (growth inhibition rate), Echinochloa crusgalli” value in the test with Echinochloa crusgalli is recorded as 5 (Level 5: the growth inhibition rate is greater than 85%). The “Activity level (growth inhibition rate), Digitaria sanguinalis” value in the test on Digitaria sanguinalis is recorded as 5 (Level 5: the growth inhibition rate is greater than 85%).

Consider `C[C@@H](Oc1nc(F)c(Cl)c(N)c1Cl)C(=O)OCc1cccnc1` [Compound 2-346], for which, in test [1], the “Activity level (growth inhibition rate), Abutilon theophrasti Medic.” value was 5 (Level 5: the growth inhibition rate is greater than 85%); the “Activity level (growth inhibition rate), Galium aparine” value is listed as 5 (Level 5: the growth inhibition rate is greater than 85%); the “Activity level (growth inhibition rate), Monochoria Vaginalis” value is reported as 5 (Level 5: the growth inhibition rate is greater than 85%). The “Activity level (growth inhibition rate), Echinochloa crusgalli” value in the test with Echinochloa crusgalli is recorded as 5 (Level 5: the growth inhibition rate is greater than 85%). The “Activity level (growth inhibition rate), Digitaria sanguinalis” value in the test on Digitaria sanguinalis was 5 (Level 5: the growth inhibition rate is greater than 85%).

Turning to `C[C@@H](Oc1nc(F)c(Cl)c(N)c1Cl)C(=O)SCc1cccnc1` [Compound 2-347], in test [1], the “Activity level (growth inhibition rate), Abutilon theophrasti Medic.” value was 5 (Level 5: the growth inhibition rate is greater than 85%); the “Activity level (growth inhibition rate), Galium aparine” value is listed as 5 (Level 5: the growth inhibition rate is greater than 85%); the “Activity level (growth inhibition rate), Monochoria Vaginalis” value is 5 (Level 5: the growth inhibition rate is greater than 85%). Moreover, the “Activity level (growth inhibition rate), Echinochloa crusgalli” value with Echinochloa crusgalli is 5 (Level 5: the growth inhibition rate is greater than 85%). In addition, in the test with Digitaria sanguinalis, the “Activity level (growth inhibition rate), Digitaria sanguinalis” value is 5 (Level 5: the growth inhibition rate is greater than 85%).

Regarding `C[C@@H](Oc1nc(F)c(Cl)c(N)c1Cl)C(=O)OCc1ccoc1` [Compound 2-349], in test [1], the “Activity level (growth inhibition rate), Abutilon theophrasti Medic.” value is reported as 5 (Level 5: the growth inhibition rate is greater than 85%); the “Activity level (growth inhibition rate), Galium aparine” value is reported as 5 (Level 5: the growth inhibition rate is greater than 85%); the “Activity level (growth inhibition rate), Monochoria Vaginalis” value is 5 (Level 5: the growth inhibition rate is greater than 85%). Further, in the test on Echinochloa crusgalli, the “Activity level (growth inhibition rate), Echinochloa crusgalli” value is 5 (Level 5: the growth inhibition rate is greater than 85%). Also, the “Activity level (growth inhibition rate), Digitaria sanguinalis” value in the test on Digitaria sanguinalis was 5 (Level 5: the growth inhibition rate is greater than 85%).

Consider `C[C@@H](Oc1nc(F)c(Cl)c(N)c1Cl)C(=O)OCc1cccs1` [Compound 2-350], for which, in test [1], the “Activity level (growth inhibition rate), Abutilon theophrasti Medic.” value is 5 (Level 5: the growth inhibition rate is greater than 85%); the “Activity level (growth inhibition rate), Galium aparine” value is 5 (Level 5: the growth inhibition rate is greater than 85%); the “Activity level (growth inhibition rate), Monochoria Vaginalis” value is recorded as 5 (Level 5: the growth inhibition rate is greater than 85%). In addition, the “Activity level (growth inhibition rate), Echinochloa crusgalli” value with Echinochloa crusgalli was 5 (Level 5: the growth inhibition rate is greater than 85%). Further, in the test with Digitaria sanguinalis, the “Activity level (growth inhibition rate), Digitaria sanguinalis” value is 5 (Level 5: the growth inhibition rate is greater than 85%).

As for `C[C@@H](Oc1nc(F)c(Cl)c(N)c1Cl)C(=O)OCc1ccsc1` [Compound 2-351], in test [1], the “Activity level (growth inhibition rate), Abutilon theophrasti Medic.” value was 5 (Level 5: the growth inhibition rate is greater than 85%); the “Activity level (growth inhibition rate), Galium aparine” value is 5 (Level 5: the growth inhibition rate is greater than 85%); the “Activity level (growth inhibition rate), Monochoria Vaginalis” value was 5 (Level 5: the growth inhibition rate is greater than 85%). The “Activity level (growth inhibition rate), Echinochloa crusgalli” value with Echinochloa crusgalli was 5 (Level 5: the growth inhibition rate is greater than 85%). Further, the “Activity level (growth inhibition rate), Digitaria sanguinalis” value with Digitaria sanguinalis is 5 (Level 5: the growth inhibition rate is greater than 85%).

For `Cc1cc(OC(=O)[C@@H](C)Oc2nc(F)c(Cl)c(N)c2Cl)n(C)n1` [Compound 2-352], in test [1], the “Activity level (growth inhibition rate), Abutilon theophrasti Medic.” value is reported as 5 (Level 5: the growth inhibition rate is greater than 85%); the “Activity level (growth inhibition rate), Galium aparine” value is 5 (Level 5: the growth inhibition rate is greater than 85%); the “Activity level (growth inhibition rate), Monochoria Vaginalis” value is reported as 5 (Level 5: the growth inhibition rate is greater than 85%). In addition, in the test on Echinochloa crusgalli, the “Activity level (growth inhibition rate), Echinochloa crusgalli” value is listed as 5 (Level 5: the growth inhibition rate is greater than 85%). In addition, the “Activity level (growth inhibition rate), Digitaria sanguinalis” value with Digitaria sanguinalis is 5 (Level 5: the growth inhibition rate is greater than 85%).

With `C[C@@H](Oc1nc(F)c(Cl)c(N)c1Cl)C(=O)OCc1ccnn1C` [Compound 2-353], in test [1], the “Activity level (growth inhibition rate), Abutilon theophrasti Medic.” value was 5 (Level 5: the growth inhibition rate is greater than 85%); the “Activity level (growth inhibition rate), Galium aparine” value is on record as 5 (Level 5: the growth inhibition rate is greater than 85%); the “Activity level (growth inhibition rate), Monochoria Vaginalis” value is reported as 5 (Level 5: the growth inhibition rate is greater than 85%). Moreover, in the test with Echinochloa crusgalli, the “Activity level (growth inhibition rate), Echinochloa crusgalli” value is 5 (Level 5: the growth inhibition rate is greater than 85%). The “Activity level (growth inhibition rate), Digitaria sanguinalis” value in the test with Digitaria sanguinalis was 5 (Level 5: the growth inhibition rate is greater than 85%).

As to `C[C@@H](Oc1nc(F)c(Cl)c(N)c1Cl)C(=O)OCc1cnn(C)c1` [Compound 2-354], in test [1], the “Activity level (growth inhibition rate), Abutilon theophrasti Medic.” value is listed as 5 (Level 5: the growth inhibition rate is greater than 85%); the “Activity level (growth inhibition rate), Galium aparine” value is on record as 5 (Level 5: the growth inhibition rate is greater than 85%); the “Activity level (growth inhibition rate), Monochoria Vaginalis” value is listed as 5 (Level 5: the growth inhibition rate is greater than 85%). The “Activity level (growth inhibition rate), Echinochloa crusgalli” value in the test on Echinochloa crusgalli is recorded as 5 (Level 5: the growth inhibition rate is greater than 85%). In addition, in the test with Digitaria sanguinalis, the “Activity level (growth inhibition rate), Digitaria sanguinalis” value is 5 (Level 5: the growth inhibition rate is greater than 85%).

On to `Cc1ccccc1OC(=O)[C@@H](C)Oc1nc(F)c(Cl)c(N)c1Cl` [Compound 2-355], for which, in test [1], the “Activity level (growth inhibition rate), Abutilon theophrasti Medic.” value is 5 (Level 5: the growth inhibition rate is greater than 85%); the “Activity level (growth inhibition rate), Galium aparine” value is given as 5 (Level 5: the growth inhibition rate is greater than 85%); the “Activity level (growth inhibition rate), Monochoria Vaginalis” value was 5 (Level 5: the growth inhibition rate is greater than 85%). Also, the “Activity level (growth inhibition rate), Echinochloa crusgalli” value in the test with Echinochloa crusgalli is reported as 5 (Level 5: the growth inhibition rate is greater than 85%). Further, the “Activity level (growth inhibition rate), Digitaria sanguinalis” value in the test on Digitaria sanguinalis is 5 (Level 5: the growth inhibition rate is greater than 85%).

In the case of `CC(Oc1nc(F)c(Cl)c(N)c1Cl)C(=O)Sc1cccc(Cl)c1` (stereo not drawn) [Compound 2-357], in test [1], the “Activity level (growth inhibition rate), Abutilon theophrasti Medic.” value is 5 (Level 5: the growth inhibition rate is greater than 85%); the “Activity level (growth inhibition rate), Galium aparine” value is listed as 5 (Level 5: the growth inhibition rate is greater than 85%); the “Activity level (growth inhibition rate), Monochoria Vaginalis” value is reported as 5 (Level 5: the growth inhibition rate is greater than 85%). Moreover, the “Activity level (growth inhibition rate), Echinochloa crusgalli” value in the test with Echinochloa crusgalli is 5 (Level 5: the growth inhibition rate is greater than 85%). In addition, the “Activity level (growth inhibition rate), Digitaria sanguinalis” value with Digitaria sanguinalis is 5 (Level 5: the growth inhibition rate is greater than 85%).

For the compound `COc1ccc(SC(=O)C(C)Oc2nc(F)c(Cl)c(N)c2Cl)cc1` (stereo not drawn) [Compound 2-358], in test [1], the “Activity level (growth inhibition rate), Abutilon theophrasti Medic.” value was 5 (Level 5: the growth inhibition rate is greater than 85%); the “Activity level (growth inhibition rate), Galium aparine” value is 5 (Level 5: the growth inhibition rate is greater than 85%); the “Activity level (growth inhibition rate), Monochoria Vaginalis” value is on record as 5 (Level 5: the growth inhibition rate is greater than 85%). The “Activity level (growth inhibition rate), Echinochloa crusgalli” value in the test on Echinochloa crusgalli is recorded as 5 (Level 5: the growth inhibition rate is greater than 85%). In the test with Digitaria sanguinalis, the “Activity level (growth inhibition rate), Digitaria sanguinalis” value is 5 (Level 5: the growth inhibition rate is greater than 85%).

Take `CC(Oc1nc(F)c(Cl)c(N)c1Cl)C(=O)Sc1cccc(C(C)C)c1` (stereo not drawn) [Compound 2-360]: in test [1], the “Activity level (growth inhibition rate), Abutilon theophrasti Medic.” value is recorded as 5 (Level 5: the growth inhibition rate is greater than 85%); the “Activity level (growth inhibition rate), Galium aparine” value is on record as 5 (Level 5: the growth inhibition rate is greater than 85%); the “Activity level (growth inhibition rate), Monochoria Vaginalis” value is given as 5 (Level 5: the growth inhibition rate is greater than 85%). Besides, the “Activity level (growth inhibition rate), Echinochloa crusgalli” value in the test on Echinochloa crusgalli was 5 (Level 5: the growth inhibition rate is greater than 85%). The “Activity level (growth inhibition rate), Digitaria sanguinalis” value in the test with Digitaria sanguinalis is 5 (Level 5: the growth inhibition rate is greater than 85%).
